Results reported in patent US20230364119A1, “AUTOPHAGY ACTIVATOR” (Resonac Corporation, priority 2020, published 2023).

Test system: LC3 gene
Experiment: LC3 gene expression promoting effect in human senescent fibroblasts (quantitative real-time PCR)
Assay type: cell-based
Experimental: Senescent fibroblasts were prepared by the following procedure.
Normal human fibroblasts (NB1RGB, RIKEN BRC Cell Bank) were cultured until confluent in D-MEM medium (manufactured by Sigma-Aldrich) to which 10% fetal bovine serum (manufactured by MP Biomedicals) was added. Thereafter, the cells were treated with 250 μM aqueous hydrogen peroxide for 2 hours, and cultured for 24 hours in D-MEM medium to which fresh 10% fetal bovine serum was added. The treatment with aqueous hydrogen peroxide and the cell culture operation were repeated three times, and the obtained fibroblasts were used as senescent fibroblasts.
The prepared senescent fibroblasts were prepared at a seeding density of 10000 cells/cm^2 and cultured for 24 hours in D-MEM medium (manufactured by Sigma-Aldrich) to which 10% fetal bovine serum (manufactured by MP Biomedicals) was added. […]
Then, using Nucleospin (registered trademark) RNA kit (manufactured by Takara Bio Inc.), RNA was extracted from senescent fibroblasts or normal human fibroblasts in each example, and cDNA was synthesized from the obtained RNA. Next, using this cDNA as a template, by quantitative real-time PCR, the expression level of each gene was quantified using primers (manufactured by Takara Bio Inc.) specific to the LC3 gene, ATG5 gene, and Beclin 1 gene, respectively. […]

O[C@H]1[C@H](O)[C@@H](O)[C@H](O)[C@@H](O)[C@H]1O [Comparative Example 2, myo-inositol]
Relative gene expression level LC3 (24 hours, 10^−3% (V/V) inositol or inositol derivative A, with the vitamin derivative of the example where added, GAPDH-standardized, Comparative Example 1 (purified water) = 1.00): 0.77 | expression level of the LC3 gene, in words (compared to Comparative Example 1 (purified water only)): more decreased
